We go through 27 molecules from patent publication US9783536B2, “Nitrogen-containing heterocyclic compound or salt thereof” (FUJIFILM Corporation, priority 2013, dated 2017).

Test [1] deals with T1, GST fusion human ERK2 protein (Homo sapiens, UniProt P28482).
T1 construct: purchased Carna Biosciences, Inc; host or cells: E. coli expression system
Nature of the test: ERK2 enzyme assay (2). Conditions: ERK2 enzyme assay (2); read-out: ERK2 enzyme inhibitory activity (2). In kind it is biochemical. An outline of the steps:
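GST-tagged human ERK2 expressed in E. coli (1.25 nmol/L) was preincubated with compound for 15 min at room temperature in pH 7.5 Hepes buffer with MgCl2, DTT and Brij35. Reaction with FL-Peptide 8 (final 4.25 μmol/L) and ATP (final 1 mmol/L) ran 120 min at 25 °C; EDTA stopped it, and phosphorylated peptide was quantified by mobility-shift separation to derive IC50.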

Another test deals with T2, human PI3Kα protein (Homo sapiens, UniProt P42336).
T2 construct: purchased Carna Biosciences, Inc; host or cells: baculovirus expression system
Nature of the test: PI3Kα enzyme assay (ADP-Glo). In kind it is biochemical. Conditions: read-out: PI3Kα enzyme inhibitory activity. In outline: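 Biotinylated human PI3Kα (baculovirus-expressed, 4.5 nmol/L) pre-incubated 15 min with compound in Tris-HCl pH 7.5, MgCl2, BSA; reaction 60 min at 25° C with 50 μmol/L PIP2 and 100 μmol/L ATP final. ADP quantified by ADP-Glo luminescence; IC50 calculated.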
Background: ADP-Glo turns the ADP formed in a reaction into a luminescent signal.

Bounds are passed on as bounds.

T2 sequence (P42336 whole entry): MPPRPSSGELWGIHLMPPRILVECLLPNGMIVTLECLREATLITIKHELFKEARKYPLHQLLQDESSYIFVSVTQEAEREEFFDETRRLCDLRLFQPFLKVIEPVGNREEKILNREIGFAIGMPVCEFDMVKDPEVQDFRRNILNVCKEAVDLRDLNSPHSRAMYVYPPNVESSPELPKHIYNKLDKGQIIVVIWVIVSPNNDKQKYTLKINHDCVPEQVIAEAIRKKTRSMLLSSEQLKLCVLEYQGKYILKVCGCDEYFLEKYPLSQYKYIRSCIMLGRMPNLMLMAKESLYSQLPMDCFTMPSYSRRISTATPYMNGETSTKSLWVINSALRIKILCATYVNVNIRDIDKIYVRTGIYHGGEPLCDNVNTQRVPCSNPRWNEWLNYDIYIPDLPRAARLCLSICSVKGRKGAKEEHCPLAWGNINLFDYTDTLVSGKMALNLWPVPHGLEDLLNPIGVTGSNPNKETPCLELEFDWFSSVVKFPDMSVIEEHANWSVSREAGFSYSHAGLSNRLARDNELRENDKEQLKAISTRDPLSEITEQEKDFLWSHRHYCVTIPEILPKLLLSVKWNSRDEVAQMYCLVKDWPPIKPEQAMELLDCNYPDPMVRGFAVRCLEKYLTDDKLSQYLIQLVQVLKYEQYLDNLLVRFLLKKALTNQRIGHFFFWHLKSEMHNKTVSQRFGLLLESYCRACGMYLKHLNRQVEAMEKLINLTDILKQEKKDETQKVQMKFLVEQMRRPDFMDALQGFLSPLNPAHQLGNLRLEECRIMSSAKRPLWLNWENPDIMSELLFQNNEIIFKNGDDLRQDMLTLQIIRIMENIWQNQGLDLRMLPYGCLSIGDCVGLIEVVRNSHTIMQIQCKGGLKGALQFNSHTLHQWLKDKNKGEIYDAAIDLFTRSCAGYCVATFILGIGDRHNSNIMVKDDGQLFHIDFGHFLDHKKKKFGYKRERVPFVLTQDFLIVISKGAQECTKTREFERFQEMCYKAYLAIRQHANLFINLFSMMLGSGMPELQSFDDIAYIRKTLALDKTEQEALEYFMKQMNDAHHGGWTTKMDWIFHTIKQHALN
T2 sequence (P27986 whole entry partner): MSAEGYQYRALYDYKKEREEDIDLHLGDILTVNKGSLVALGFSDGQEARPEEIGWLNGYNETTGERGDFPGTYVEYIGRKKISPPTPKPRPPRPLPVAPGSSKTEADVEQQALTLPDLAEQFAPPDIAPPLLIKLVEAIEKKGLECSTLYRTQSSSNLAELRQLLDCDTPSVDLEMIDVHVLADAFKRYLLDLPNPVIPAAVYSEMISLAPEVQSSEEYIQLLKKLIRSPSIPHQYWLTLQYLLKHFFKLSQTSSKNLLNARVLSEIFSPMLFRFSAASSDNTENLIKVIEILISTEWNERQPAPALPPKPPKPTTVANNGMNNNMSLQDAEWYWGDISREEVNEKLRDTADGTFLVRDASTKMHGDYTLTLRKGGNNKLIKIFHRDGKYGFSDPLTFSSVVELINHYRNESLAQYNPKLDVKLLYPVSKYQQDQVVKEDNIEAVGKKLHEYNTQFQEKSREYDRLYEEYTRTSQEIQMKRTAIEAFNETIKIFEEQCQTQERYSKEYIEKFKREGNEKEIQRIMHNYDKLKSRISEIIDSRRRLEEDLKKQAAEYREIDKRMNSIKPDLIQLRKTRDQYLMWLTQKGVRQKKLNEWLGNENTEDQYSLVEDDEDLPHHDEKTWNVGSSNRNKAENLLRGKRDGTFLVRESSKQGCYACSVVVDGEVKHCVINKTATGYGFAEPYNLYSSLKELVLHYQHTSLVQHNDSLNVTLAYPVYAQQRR
T1 sequence (P28482 whole entry, the tested form may be a part): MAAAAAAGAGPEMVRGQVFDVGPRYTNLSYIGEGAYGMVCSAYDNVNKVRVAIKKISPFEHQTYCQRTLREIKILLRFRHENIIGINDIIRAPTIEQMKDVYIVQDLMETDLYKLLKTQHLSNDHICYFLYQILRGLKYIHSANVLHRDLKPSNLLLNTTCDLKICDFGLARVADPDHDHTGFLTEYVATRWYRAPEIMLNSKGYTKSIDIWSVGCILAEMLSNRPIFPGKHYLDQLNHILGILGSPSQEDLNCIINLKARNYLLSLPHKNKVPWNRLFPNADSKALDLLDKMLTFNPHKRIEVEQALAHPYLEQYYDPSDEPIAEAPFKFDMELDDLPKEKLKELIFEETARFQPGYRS

For `Cc1ccncc1-c1nn(C)cc1-c1cnc2ccc(Nc3cc(C(C)C)cnn3)nc2c1` [Example 0736], the IC50 in test [1] is 1 to 10 µM; at human PI3Kα protein, < 1 µM.
In the case of `CC(C)c1cnnc(Nc2ccc3ncc(-c4cnn(CCOC5CN(C(=O)OC(C)(C)C)C5)c4)cc3n2)c1` [Example 0739, tert-Butyl 3-(2-(4-(6-((5-isopropylpyridazin-3-yl)amino)-1,5-naphthyridin-3-yl)-1H-pyrazol-1-yl)ethoxy)azetidine-1-carboxylate], the values for the IC50 (in test [1]; at human PI3Kα protein) were < 1 µM and 1 to 10 µM, respectively.
On the same counts, the results for `CC(C)c1cnnc(Nc2ccc3ncc(-c4cnn(CCOC5CNC5)c4)cc3n2)c1` [Example 0740, 7-(1-(2-(azetidin-3-yloxy)ethyl)-1H-pyrazol-4-yl)-N-(5-isopropylpyridazin-3-yl)-1,5-naphthyridine-2-amine] are < 1 µM and < 1 µM.
On the same counts, the results for `CC(C)c1cnnc(Nc2ccc3ncc(-c4cnn(CCOC5CN(C)C5)c4)cc3n2)c1` [Example 0741, N-(5-isopropylpyridazin-3-yl)-7-(1-(2-((1-methylazetidin-3-yl)oxy)ethyl)-1H-pyrazol-4-yl)-1,5-naphthyridine-2-amine] are < 1 µM and < 1 µM.
In the case of `CC(C)c1cnnc(Nc2ccc3ncc(-c4cnn(CCOC5CN(C(C)C)C5)c4)cc3n2)c1` [Example 0742], the IC50 (in test [1]; at human PI3Kα protein) was < 1 µM throughout.
Turning to `CC(C)c1cnnc(Nc2ccc3ncc(-c4cnn(CCOC5CN(Cc6ccccc6)C5)c4)cc3n2)c1` [Example 0743], the IC50 (in test [1]; on human PI3Kα protein) was < 1 µM in each case.
As to `COCCOC(CN1CCOCC1)Cn1cc(-c2cnc3ccc(Nc4cc(C(C)C)cnn4)nc3c2)cn1` (stereo not drawn) [Example 0744], the IC50 (in test [1]; on human PI3Kα protein) was < 1 µM throughout.
As to `CC(C)c1cnnc(Nc2ccc3ncc(-c4cnn(CC(CN5CCOCC5)OCC5CC5)c4)cc3n2)c1` (stereo not drawn) [Example 0745], the IC50 (in test [1]; on human PI3Kα protein) was < 1 µM each time.
Consider `CCN1CC(OCCn2cc(-c3cnc4ccc(Nc5cc(C(C)C)cnn5)nc4c3)cn2)C1` [Example 0746, 7-(1-(2-((l-Ethylazetidin-3-yl)oxy)ethyl)-1H-pyrazol-4-yl)-N-(5-isopropylpyridazin-3-yl)-1,5-naphthyridine-2-amine], for which the IC50 (in test [1]; on human PI3Kα protein) was < 1 µM in each case.
On to `CC(C)c1cnnc(Nc2ccc3ncc(-c4cnn(CCOC5CN(CC(F)F)C5)c4)cc3n2)c1` [Example 0747, 7-(1-(2-((1-(2,2-difluoroethyl)azetidin-3-yl)oxy)ethyl)-1H-pyrazol-4-yl)-N-(5-isopropylpyridazin-3-yl)-1,5-naphthyridine-2-amine], for which the IC50 (in test [1]; at human PI3Kα protein) was < 1 µM throughout.
Take `Cc1cc(-c2nn(C)cc2-c2cnc3ccc(Nc4cc(C(C)C)cnn4)nc3c2)cc(C)n1` [Example 0748, 7-(3-(2,6-Dimethylpyridin-4-yl)-1-methyl-1H-pyrazol-4-yl)-N-(5-isopropylpyridazin-3-yl)-1,5-naphthyridine-2-amine]: the IC50 (in test [1]; at human PI3Kα protein) was < 1 µM each time.
Consider `CC(C)c1cnnc(Nc2ccc3ncc(-c4cn(C)nc4-c4ccnc(N5CCOCC5)c4)cc3n2)c1` [Example 0749, N-(5-isopropylpyridazin-3-yl)-7-(1-methyl-3-(2-morpholinopyridin-4-yl)-1H-pyrazol-4-yl)-1,5-naphthyridine-2-amine], for which the IC50 (in test [1]; on human PI3Kα protein) was < 1 µM throughout.
On to `COCCOc1cc(-c2nn(C)cc2-c2cnc3ccc(Nc4cc(C(C)C)cnn4)nc3c2)ccn1` [Example 0750, N-(5-isopropylpyridazin-3-yl)-7-(3-(2-(2-methoxyethoxyl)pyridin-4-yl)-1-methyl-1H-pyrazol-4-yl)-1,5-naphthyridine-2-amine], for which the IC50 (in test [1]; at human PI3Kα protein) was < 1 µM throughout.
Regarding `CC(C)c1cnnc(Nc2ccc3ncc(-c4cn(C)nc4-c4ccnc(OCCN(C)C)c4)cc3n2)c1` [Example 0751], the IC50 (in test [1]; at human PI3Kα protein) was < 1 µM each time.
On to `CC(C)c1cnnc(Nc2ccc3ncc(-c4cn(C)nc4-c4ccnc(N)c4)cc3n2)c1` [Example 0752, 7-(3-(2-aminopyridin-4-yl)-1-methyl-1H-pyrazol-4-yl)-N-(5-isopropylpyridazin-3-yl)-1,5-naphthyridine-2-amine], for which the IC50 (in test [1]; on human PI3Kα protein) was < 1 µM throughout.
With `CC(=O)N1CC(OCCn2cc(-c3cnc4ccc(Nc5cc(C(C)C)cnn5)nc4c3)cn2)C1` [Example 0754, 1-(3-(2-(4-(6-((5-isopropylpyridazin-3-yl)amino)-1,5-naphthyridin-3-yl)-1H-pyrazol-1-yl)ethoxy)azetidin-1-yl)ethanone], the IC50 (in test [1]; on human PI3Kα protein) was < 1 µM throughout.
Regarding `CC(C)c1cnnc(Nc2ccc3ncc(-c4cnn(CCOC5CN(S(C)(=O)=O)C5)c4)cc3n2)c1` [Example 0755, N-(5-isopropylpyridazin-3-yl)-7-(1-(2-((1-(methylsulfonyl)azetidin-3-yl)oxy)ethyl)-1H-pyrazol-4-yl)-1,5-naphthyridine-2-amine], the IC50 (in test [1]; on human PI3Kα protein) was < 1 µM throughout.
As to `CC(C)c1cnnc(Nc2ccc3ncc(-c4ccnn4C)cc3n2)c1` [Example 0758], the IC50 in test [1] is < 1 µM; on human PI3Kα protein, 1 to 10 µM.
On the same counts, the results for `Cn1cc(-c2cnc3ccc(Nc4cc(C5CCOCC5)cnn4)nc3c2)cn1` [Example 0759] are < 1 µM and < 1 µM.
On the same counts, the results for `Cc1nn(C)cc1-c1cnc2ccc(Nc3cc(C4CCOCC4)cnn3)nc2c1` [Example 0760, 7-(1,3-Dimethyl-1H-pyrazol-4-yl)-N-(5-(tetrahydro-2H-pyran-4-yl)pyridazin-3-yl)-1,5-naphthyridine-2-amine] are < 1 µM and < 1 µM.
On the same counts, the results for `CC(C)c1cnnc(Nc2ccc3ncc(N4CCOC[C@H]4C)cc3n2)c1` [Example 0762, (R)-N-(5-isopropylpyridazin-3-yl)-7-(3-methylmorpholino)-1,5-naphthyridine-2-amine] are < 1 µM and < 1 µM.
With `CC(C)c1cnnc(Nc2ccc3ncc(N4CCOC[C@@H]4C)cc3n2)c1` [Example 0764], the IC50 (in test [1]; at human PI3Kα protein) was < 1 µM each time.
On to `CC(C)c1cnnc(Nc2ccc3ncc(-c4cc(N)ncn4)cc3n2)c1` [Example 0765], for which the IC50 (in test [1]; on human PI3Kα protein) was < 1 µM throughout.
In the case of `CC(C)c1cnnc(Nc2ccc3ncc(-c4ccnc(N)n4)cc3n2)c1` [Example 0766], the IC50 (in test [1]; on human PI3Kα protein) was < 1 µM throughout.
Take `Cc1ccc(-c2nn(C)cc2-c2cnc3ccc(Nc4cc(C(C)C)cnn4)nc3c2)cc1` [Example 0767, N-(5-isopropylpyridazin-3-yl)-7-(1-methyl-3-(4-methylphenyl)-1H-pyrazol-4-yl)-1,5-naphthyridine-2-amine]: the IC50 (in test [1]; at human PI3Kα protein) was < 1 µM in each case.
Take `CC(C)c1cnnc(Nc2ccc3ncc(-c4cn(C)nc4-c4ccc(CN(C)C)cc4)cc3n2)c1` [Example 0768]: the IC50 in test [1] was 1 to 10 µM; at human PI3Kα protein it was < 1 µM.
On the same counts, the results for `CCC(CC)c1cnnc(Nc2ccc3ncc(-c4cn(C)nc4C)cc3n2)c1` [Example 0769] are < 1 µM and < 1 µM.
